Measurements as given in patent US8691517B2, “Flexible carbohydrate-bearing polymer” (Medtronic Minimed, Inc., priority 2005, dated 2014).

Biological target: MBL (Homo sapiens, UniProt P11226)
Experiment: affinity of monomeric saccharide unit to MBL
Assay type: binding

Chain of MBL (P11226 21-248): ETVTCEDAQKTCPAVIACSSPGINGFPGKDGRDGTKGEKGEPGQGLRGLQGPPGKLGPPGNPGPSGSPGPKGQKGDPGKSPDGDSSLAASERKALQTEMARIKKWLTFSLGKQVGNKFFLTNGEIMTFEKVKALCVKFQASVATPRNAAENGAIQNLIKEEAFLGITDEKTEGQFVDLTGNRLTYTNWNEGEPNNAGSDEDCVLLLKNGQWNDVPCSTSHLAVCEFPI

O=C[C@H](O)[C@@H](O)[C@@H](O)[C@H](O)CO [galactose]
IC50: ~36 mM

CC(=O)N[C@H]1C(O)O[C@H](CO)[C@@H](O)[C@@H]1O (some centres unmarked) [N-acetyl-glucosamine]
IC50: ~6 mM
